These results are taken from ChEMBL document CHEMBL5465560, “Selectivity Literature for EUbOPEN Chemogenomic Library” (2024).

The target in assay [1] is Ephrin type-A receptor 7 (Homo sapiens) (UniProt Q15375). As to conditions: at 10 µM.
In assay [2] the target is T1, Serine/threonine-protein kinase DCLK2 (Homo sapiens) (UniProt Q8N568).
T1 sequence (whole entry): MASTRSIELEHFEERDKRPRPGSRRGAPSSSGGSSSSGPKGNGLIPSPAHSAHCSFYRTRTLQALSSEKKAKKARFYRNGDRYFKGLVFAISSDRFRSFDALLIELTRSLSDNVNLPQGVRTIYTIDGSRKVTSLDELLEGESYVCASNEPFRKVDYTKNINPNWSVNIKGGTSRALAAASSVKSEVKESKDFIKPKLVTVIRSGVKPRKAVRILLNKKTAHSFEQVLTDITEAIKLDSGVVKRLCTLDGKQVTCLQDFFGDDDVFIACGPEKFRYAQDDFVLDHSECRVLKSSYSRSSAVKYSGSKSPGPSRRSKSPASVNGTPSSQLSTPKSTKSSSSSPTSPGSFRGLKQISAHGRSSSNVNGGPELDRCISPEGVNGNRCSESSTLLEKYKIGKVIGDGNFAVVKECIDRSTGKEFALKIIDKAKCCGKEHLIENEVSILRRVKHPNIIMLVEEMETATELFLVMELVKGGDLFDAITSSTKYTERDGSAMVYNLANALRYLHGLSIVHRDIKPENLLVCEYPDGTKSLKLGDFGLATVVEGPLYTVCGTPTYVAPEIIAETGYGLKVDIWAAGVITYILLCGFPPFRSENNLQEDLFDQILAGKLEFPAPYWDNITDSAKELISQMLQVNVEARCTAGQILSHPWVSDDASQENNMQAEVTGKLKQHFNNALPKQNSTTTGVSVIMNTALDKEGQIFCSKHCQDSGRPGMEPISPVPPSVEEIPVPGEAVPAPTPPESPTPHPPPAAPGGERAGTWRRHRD
The assay is described as follows: Selectivity interaction (KinomeScan (DiscoverX)) EUB0001619a DCLK2. As to conditions: at 1 µM.

Assay [3] deals with T2, Serine/threonine-protein kinase Nek9 (Homo sapiens) (UniProt Q8TD19).
T2 sequence (whole entry): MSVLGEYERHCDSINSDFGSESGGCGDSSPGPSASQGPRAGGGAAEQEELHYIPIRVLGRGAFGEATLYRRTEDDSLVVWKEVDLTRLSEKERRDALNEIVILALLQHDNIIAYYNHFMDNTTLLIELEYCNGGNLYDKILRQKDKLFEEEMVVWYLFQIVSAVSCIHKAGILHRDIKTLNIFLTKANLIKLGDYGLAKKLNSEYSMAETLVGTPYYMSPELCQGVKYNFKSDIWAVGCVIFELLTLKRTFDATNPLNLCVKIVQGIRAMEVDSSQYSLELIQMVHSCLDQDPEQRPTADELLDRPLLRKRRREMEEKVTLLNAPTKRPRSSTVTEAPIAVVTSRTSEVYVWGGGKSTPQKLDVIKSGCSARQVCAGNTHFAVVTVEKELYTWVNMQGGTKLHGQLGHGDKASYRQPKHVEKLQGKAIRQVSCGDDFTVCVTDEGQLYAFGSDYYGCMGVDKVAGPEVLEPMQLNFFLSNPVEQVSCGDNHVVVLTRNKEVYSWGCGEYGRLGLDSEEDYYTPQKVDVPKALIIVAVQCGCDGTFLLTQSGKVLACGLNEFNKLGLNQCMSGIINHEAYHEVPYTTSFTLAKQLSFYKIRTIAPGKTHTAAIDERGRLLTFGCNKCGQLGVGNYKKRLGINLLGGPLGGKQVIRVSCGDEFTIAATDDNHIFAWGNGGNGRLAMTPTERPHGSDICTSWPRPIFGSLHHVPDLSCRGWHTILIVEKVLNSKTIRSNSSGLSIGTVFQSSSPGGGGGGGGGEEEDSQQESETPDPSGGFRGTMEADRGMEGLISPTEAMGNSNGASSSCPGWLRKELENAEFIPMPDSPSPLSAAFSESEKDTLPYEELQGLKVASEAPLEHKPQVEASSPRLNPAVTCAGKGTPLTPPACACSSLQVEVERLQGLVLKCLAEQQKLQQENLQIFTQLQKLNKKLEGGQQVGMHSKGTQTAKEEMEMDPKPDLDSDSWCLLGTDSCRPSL
The assay is described as follows: Selectivity interaction (KinomeScan (DiscoverX)) EUB0001619a NEK9. To be noted: at 1 µM.

For assay [4], the target named is T3, Serine/threonine-protein kinase TAO2 (Homo sapiens) (UniProt Q9UL54).
T3 sequence (whole entry): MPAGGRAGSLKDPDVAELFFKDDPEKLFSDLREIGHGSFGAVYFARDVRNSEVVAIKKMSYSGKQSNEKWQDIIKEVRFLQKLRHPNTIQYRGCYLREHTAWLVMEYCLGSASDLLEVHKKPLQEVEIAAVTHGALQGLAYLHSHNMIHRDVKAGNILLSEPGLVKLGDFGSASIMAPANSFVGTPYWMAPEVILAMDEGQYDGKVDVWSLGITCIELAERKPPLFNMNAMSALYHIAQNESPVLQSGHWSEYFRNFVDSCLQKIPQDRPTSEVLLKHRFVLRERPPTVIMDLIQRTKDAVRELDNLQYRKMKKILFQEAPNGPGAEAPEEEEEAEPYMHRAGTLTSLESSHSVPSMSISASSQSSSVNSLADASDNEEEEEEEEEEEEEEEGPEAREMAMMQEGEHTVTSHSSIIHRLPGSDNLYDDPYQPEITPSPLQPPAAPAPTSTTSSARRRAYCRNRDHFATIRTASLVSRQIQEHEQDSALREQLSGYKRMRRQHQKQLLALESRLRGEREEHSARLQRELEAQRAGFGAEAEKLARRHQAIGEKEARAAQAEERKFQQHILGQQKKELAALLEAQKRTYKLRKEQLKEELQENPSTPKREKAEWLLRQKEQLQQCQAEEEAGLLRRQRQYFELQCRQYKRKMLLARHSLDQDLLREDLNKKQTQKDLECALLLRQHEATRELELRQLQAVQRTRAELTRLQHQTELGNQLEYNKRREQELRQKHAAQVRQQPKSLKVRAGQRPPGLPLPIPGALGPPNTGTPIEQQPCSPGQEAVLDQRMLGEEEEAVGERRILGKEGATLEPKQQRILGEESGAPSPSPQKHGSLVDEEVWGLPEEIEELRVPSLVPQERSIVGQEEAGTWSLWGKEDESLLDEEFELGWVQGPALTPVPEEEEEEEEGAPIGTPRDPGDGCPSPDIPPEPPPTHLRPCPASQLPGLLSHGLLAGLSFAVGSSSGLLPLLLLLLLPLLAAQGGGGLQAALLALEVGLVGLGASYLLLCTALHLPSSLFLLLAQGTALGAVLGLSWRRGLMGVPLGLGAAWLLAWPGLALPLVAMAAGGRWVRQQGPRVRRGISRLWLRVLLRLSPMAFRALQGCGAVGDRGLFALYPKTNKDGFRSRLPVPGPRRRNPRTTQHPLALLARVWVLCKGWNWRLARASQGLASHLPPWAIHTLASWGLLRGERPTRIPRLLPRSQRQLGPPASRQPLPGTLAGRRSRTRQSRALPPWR
The assay is described as follows: Selectivity interaction (Kinase panel (literature)) EUB0001199aCl TAOK2. As to conditions: at 1 µM.

Chain of Ephrin type-A receptor 7 (Homo sapiens) (Q15375 28-998 limits assumed): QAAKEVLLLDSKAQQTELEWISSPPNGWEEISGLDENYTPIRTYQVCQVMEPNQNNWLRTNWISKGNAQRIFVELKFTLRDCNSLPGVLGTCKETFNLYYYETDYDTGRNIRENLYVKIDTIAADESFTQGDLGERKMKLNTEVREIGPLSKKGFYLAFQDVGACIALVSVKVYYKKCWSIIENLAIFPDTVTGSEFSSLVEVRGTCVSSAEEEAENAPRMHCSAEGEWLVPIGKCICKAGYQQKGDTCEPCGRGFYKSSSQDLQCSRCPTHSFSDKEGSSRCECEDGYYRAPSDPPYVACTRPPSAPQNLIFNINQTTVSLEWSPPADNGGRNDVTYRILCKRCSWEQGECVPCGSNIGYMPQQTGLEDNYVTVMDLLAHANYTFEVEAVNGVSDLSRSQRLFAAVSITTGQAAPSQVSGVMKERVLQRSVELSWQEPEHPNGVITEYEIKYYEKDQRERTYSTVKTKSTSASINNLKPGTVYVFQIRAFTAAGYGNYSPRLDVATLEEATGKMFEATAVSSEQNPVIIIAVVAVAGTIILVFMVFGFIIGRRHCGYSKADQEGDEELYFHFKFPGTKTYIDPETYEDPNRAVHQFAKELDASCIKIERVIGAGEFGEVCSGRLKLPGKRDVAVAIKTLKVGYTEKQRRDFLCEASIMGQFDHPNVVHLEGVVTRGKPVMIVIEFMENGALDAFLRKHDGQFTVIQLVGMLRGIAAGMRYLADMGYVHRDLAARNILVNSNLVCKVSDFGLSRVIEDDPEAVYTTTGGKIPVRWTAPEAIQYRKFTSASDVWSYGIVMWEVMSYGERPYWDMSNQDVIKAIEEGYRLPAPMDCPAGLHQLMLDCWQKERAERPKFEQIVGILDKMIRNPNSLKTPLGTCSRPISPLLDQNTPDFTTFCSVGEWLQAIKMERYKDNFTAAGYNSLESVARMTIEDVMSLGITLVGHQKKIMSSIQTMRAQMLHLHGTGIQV

For the compound `Cc1cc([C@@H](C)Nc2ccccc2C(=O)O)c2nc(N3CCOCC3)cc(=O)n2c1` [AZD-6482], in assay [1], the % of control worked out at 89%.

For `N#Cc1cccc(-c2c[nH]c3ncnc(N4CCOCC4)c23)c1`, the % of control in assay [2] came out at 100%; in assay [3], 97%.

On to `CN1Cc2nccc(-c3cn(C)nc3-c3ccc(F)cc3)c2C1=O`, for which the % of inhibition in assay [4] is -1%.
